Here are results for eight molecules from ChEMBL document CHEMBL5584338, “Design, Synthesis, and Biological Evaluation of 5-Amino-4-fluoro-1H-benzo[d]imidazole-6-carboxamide Derivatives as Novel and Potential MEK/RAF Complex Inhibitors Based on the "Clamp" Strategy” (J Med Chem, 2024).

Calls of active or inactive are those of the source. No cut-off for these calls is given here.

Data set [1] deals with HCT-116. The experiment in a line: Antiproliferative activity against human HCT-116 cells harboring KRAS G13D mutant at 1 uM incubated for 72 hrs by CCK8 assay relative to control. The data set is classed as functional.
Data set [2] addresses T1, Dual specificity mitogen-activated protein kinase kinase 1 (Homo sapiens, UniProt Q02750). The data set can be described thus: Inhibition of MEK1 (unknown origin).
Data set [3] concerns MIA PaCa-2. The data set can be described thus: Antiproliferative activity against human MIA PaCa-2 cells harboring KRAS G12C mutant at 0.1 uM incubated for 72 hrs by CCK8 assay relative to control. The data set is classed as functional.
A further data set relates to HeLa. The data set can be described thus: Antiproliferative activity against human HeLa cells incubated for 72 hrs by CCK8 assay. The data set is classed as functional, cell-based. In general terms: Tetrazolium assays rely on reduction of a dye to a coloured formazan, in cell work by metabolically active cells.
The target in data set [4] is T2, Serine/threonine-protein kinase B-raf (Homo sapiens, UniProt P15056). The experiment in a line: Inhibition of BRAF (unknown origin).
A short description of data set [5]: Stability in human liver microsomes assessed as half life at 200 uM preincubated for 5 mins followed by NADPH addition measured upto 60 mins by LC-MS/MS analysis. The data set is classed as ADME, Microsome. The following applies: time 65 min. On the technique in general: Liver microsomes are vesicles of endoplasmic reticulum, rich in cytochrome P450 enzymes.
Data set [6] has as its system HCT-116. The data set can be described thus: Antiproliferative activity against human HCT-116 cells harboring KRAS G13D mutant incubated for 72 hrs by CCK8 assay. The data set is classed as functional, cell-based. The settings on record: HCT-116, 72 h.
Data set [7] addresses T1, Dual specificity mitogen-activated protein kinase kinase 1. The experiment in a line: Inhibition of MEK1 (unknown origin) assessed as remaining activity at 0.1 uM relative to control.
Data set [8] is described as follows: Antiproliferative activity against rat H9c2 cells incubated for 72 hrs by CCK8 assay. The data set is classed as toxicity, cell-based.
A short description of data set [9]: Antiproliferative activity against mouse C26 cells harboring KRAS G12D mutant incubated for 72 hrs by CCK8 assay. The data set is classed as functional, cell-based, C-26. The settings on record: C26, 72 h.
Data set [10] concerns MIA PaCa-2. The experiment in a line: Antiproliferative activity against human MIA PaCa-2 cells harboring KRAS G12C mutant incubated for 72 hrs by CCK8 assay. The data set is classed as functional, cell-based. The settings on record: MIA PaCa-2, 72 h.
The test system of data set [11] is Mitogen-activated protein kinase 1/3 (ERK1/2) (Homo sapiens). The data set can be described thus: Inhibition of ERK phosphorylation in human MIA PaCa-2 cells upto 1 uM incubated for 4 hrs by Western blot analysis. In general terms: Immunoblotting shows a protein as a band on a membrane.
Data set [12] addresses T2, Serine/threonine-protein kinase B-raf. The experiment in a line: Inhibition of BRAF (unknown origin) assessed as remaining activity at 0.1 uM relative to control.
Data set [13] has as its target Dual specificity mitogen-activated protein kinase kinase; MEK1/2 (Homo sapiens) (UniProt P36507+Q02750). The data set can be described thus: Inhibition of MEK phosphorylation in human MIA PaCa-2 cells upto 1 uM incubated for 4 hrs by Western blot analysis. The data set is classed as cell-based.
The nature of data set [14]: Inhibition of BRAF […] mutant (unknown origin). More on the design: species or system Homo sapiens.

T1 sequence (Q02750 whole entry): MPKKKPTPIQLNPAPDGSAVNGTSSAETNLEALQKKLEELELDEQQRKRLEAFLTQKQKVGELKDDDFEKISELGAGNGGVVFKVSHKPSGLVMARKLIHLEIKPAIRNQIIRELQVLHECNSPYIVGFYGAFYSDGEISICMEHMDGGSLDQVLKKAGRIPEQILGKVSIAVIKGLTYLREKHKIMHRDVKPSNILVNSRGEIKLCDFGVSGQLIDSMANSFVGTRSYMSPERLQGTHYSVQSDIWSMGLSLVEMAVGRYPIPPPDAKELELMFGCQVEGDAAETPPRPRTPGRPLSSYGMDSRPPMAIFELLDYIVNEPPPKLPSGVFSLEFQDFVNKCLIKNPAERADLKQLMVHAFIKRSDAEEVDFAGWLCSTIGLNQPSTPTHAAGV
Dual specificity mitogen-activated protein kinase kinase; MEK1/2 (Homo sapiens), sequence (P36507 whole entry, looked up): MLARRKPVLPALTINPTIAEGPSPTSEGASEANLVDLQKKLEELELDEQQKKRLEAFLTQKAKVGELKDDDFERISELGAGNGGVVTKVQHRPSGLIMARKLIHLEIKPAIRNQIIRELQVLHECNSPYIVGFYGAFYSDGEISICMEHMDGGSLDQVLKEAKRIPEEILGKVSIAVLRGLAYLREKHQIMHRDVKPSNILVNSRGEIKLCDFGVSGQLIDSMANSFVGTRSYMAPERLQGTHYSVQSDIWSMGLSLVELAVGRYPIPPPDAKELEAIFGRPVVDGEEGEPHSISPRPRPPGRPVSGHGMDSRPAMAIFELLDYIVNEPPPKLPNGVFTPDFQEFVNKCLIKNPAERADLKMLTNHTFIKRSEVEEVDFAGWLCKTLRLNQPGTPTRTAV
Dual specificity mitogen-activated protein kinase kinase; MEK1/2 (Homo sapiens), sequence (Q02750 whole entry, looked up): as the sequence (Q02750 whole entry) above
T2 sequence (P15056 whole entry): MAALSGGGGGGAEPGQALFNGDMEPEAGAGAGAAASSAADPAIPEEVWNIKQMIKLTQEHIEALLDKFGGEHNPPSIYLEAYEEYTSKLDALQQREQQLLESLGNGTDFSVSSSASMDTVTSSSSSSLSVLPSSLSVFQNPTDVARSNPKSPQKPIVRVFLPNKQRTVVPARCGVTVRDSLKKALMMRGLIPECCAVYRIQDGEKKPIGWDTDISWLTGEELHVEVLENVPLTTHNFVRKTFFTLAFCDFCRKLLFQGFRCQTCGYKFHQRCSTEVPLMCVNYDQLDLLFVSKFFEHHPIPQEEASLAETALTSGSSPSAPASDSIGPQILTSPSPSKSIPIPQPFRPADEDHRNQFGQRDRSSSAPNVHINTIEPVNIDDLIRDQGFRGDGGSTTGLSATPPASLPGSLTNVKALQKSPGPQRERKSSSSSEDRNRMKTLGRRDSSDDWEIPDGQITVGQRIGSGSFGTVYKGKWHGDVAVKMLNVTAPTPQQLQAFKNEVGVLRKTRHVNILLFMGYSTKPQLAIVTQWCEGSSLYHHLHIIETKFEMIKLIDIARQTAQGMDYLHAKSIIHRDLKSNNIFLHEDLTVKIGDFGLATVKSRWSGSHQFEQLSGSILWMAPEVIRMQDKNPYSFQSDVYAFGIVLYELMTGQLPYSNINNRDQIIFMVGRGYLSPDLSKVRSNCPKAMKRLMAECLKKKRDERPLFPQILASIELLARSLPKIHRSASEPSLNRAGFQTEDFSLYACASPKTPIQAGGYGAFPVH

Regarding `CNS(=O)(=O)Nc1cccc(Cn2cnc3c(F)c(Nc4ccc(C5CC5)cc4F)c(C(N)=O)cc32)c1`, the inhibition (commonly how much of the control response was suppressed) at 1 µM with HCT-116 [1] was 21.9%. Moreover, in data set [2], the IC50 (in general, the midpoint of a concentration-inhibition curve) is over 2000 nM. This molecule came in with an inhibition at 0.1 µM in the data set on MIA PaCa-2 [3] of 15.8%.
Regarding `CNS(=O)(=O)Nc1cccc(Cn2cnc3c(F)c(Nc4ccc(I)cc4F)c(C(=O)NOCCO)cc32)c1F`, the IC50 is over 10000 nM with HeLa; 4 nM in data set [4]; 74 nM in the data set on HCT-116 [6]; 8 nM in [2]; 11 nM in data set [9]; 71 nM in the data set on MIA PaCa-2 [10]. The half-life – broadly, how long it takes for the measured level to halve – at 200 µM in [5] was determined as 25 min. Besides, the inhibition at 1 µM with HCT-116 [1] is 64.8%. Further, the Activity was 9% in data set [7] and -2% in [12]. In data set [8], the IC50 at 72 h is over 50000 nM. For the same molecule, the inhibition result in data set [11] and in data set [13] was “Active” each time. In addition, 0.1 µM produced 62% inhibition in the data set on MIA PaCa-2 [3].
In turn, `CNS(=O)(=O)Nc1nccc(Cc2c(C)c3ccc(Oc4ncccn4)cc3oc2=O)c1F` [AVUTOMETINIB] displayed an inhibition at 1 µM in the data set on HCT-116 [1] of 56.1%. In addition, the IC50 in the data set on HCT-116 [6] was found to be 739 nM; in the data set with MIA PaCa-2 [10] it was 115 nM. Moreover, the inhibition at 0.1 µM with MIA PaCa-2 [3] is 59.6%. Also, in data set [13], the inhibition result was “Active”.
Consider `CCNS(=O)(=O)Nc1cccc(Cn2cnc3c(F)c(Nc4ccc(C5CC5)cc4F)c(C(=O)NOCCO)cc32)c1`, for which the IC50 with HeLa is over 10000 nM; in data set [4], 7 nM; with HCT-116 [6], 123 nM; in data set [2], 74 nM; in [9] it was 226 nM; in the data set on MIA PaCa-2 [10], 23 nM. Besides, in data set [14], inhibition was half-maximal at 8 nM (IC50). In addition, the half-life at 200 µM in [5] amounted to 47.5 min. In addition, the inhibition at 1 µM in the data set with HCT-116 [1] turned out to be 60.4%. The Activity stood at 46% in [7] and 0% in [12]. The same molecule gave an IC50 at 72 h in data set [8] of over 50000 nM. In addition, the inhibition entry in data set [11] was “Active”. For the same molecule, in the data set with MIA PaCa-2 [3], 0.1 µM produced 78.8% inhibition.
On to `CNS(=O)(=O)Nc1cccc(Cn2cnc3c(F)c(Nc4ccc(C5CC5)cc4F)c(C(=O)NOCCO)cc32)c1F`, for which the IC50 with HeLa was over 10000 nM; in data set [4] it was 4 nM; in the data set on HCT-116 [6], 183 nM; in [2], 42 nM; in data set [9] it was 56 nM; with MIA PaCa-2 [10], 15 nM. Moreover, in data set [14], the IC50 stood at 5 nM. For the same molecule, the half-life at 200 µM in [5] came to 37.7 min. Testing at 1 µM with HCT-116 [1] gave an inhibition of 61.2%. Moreover, the Activity was 40% in [7] and -4% in data set [12]. In addition, the IC50 at 72 h in data set [8] was over 50000 nM. For the same molecule, the inhibition result in data set [11] and in [13] was “Active” in each case. Further, the inhibition at 0.1 µM in the data set with MIA PaCa-2 [3] was 75.9%.
For the molecule `CNS(=O)(=O)Nc1cccc(Cn2cnc3c(F)c(Nc4ccc(C5CC5)cc4F)c(C(=O)NOCCO)cc32)c1`, the IC50 was over 10000 nM in the data set with HeLa; 5 nM in data set [4]; 223 nM with HCT-116 [6]; 119 nM in [2]; 152 nM in data set [9]; 114 nM in the data set with MIA PaCa-2 [10]. This molecule also yielded an IC50 in data set [14] of 16 nM. Also, 1 µM produced 52.8% inhibition in the data set on HCT-116 [1]. Also, the Activity was determined as 58% in [7] and 5% in [12]. The IC50 at 72 h in data set [8] is over 50000 nM. This molecule also returned an inhibition at 0.1 µM in the data set on MIA PaCa-2 [3] of 53.1%.
`CNS(=O)(=O)Nc1cccc(Cn2cnc3c(F)c(Nc4ccc(C5CCC5)cc4F)c(C(=O)NOCCO)cc32)c1F`: the inhibition at 1 µM in the data set on HCT-116 [1] came to 48.5%. For the same molecule, the IC50 in the data set on HCT-116 [6] worked out at 898 nM; with MIA PaCa-2 [10], 249 nM. For the same molecule, the Activity in data set [7] turned out to be 76%; in [12] it was 5%. Moreover, the inhibition at 0.1 µM with MIA PaCa-2 [3] amounted to 52.8%.
`CC(=O)Nc1cccc(Cn2cnc3c(F)c(Nc4ccc(C5CC5)cc4F)c(C(=O)NOCCO)cc32)c1` returned an inhibition at 1 µM in the data set with HCT-116 [1] of 33.3%. Further, the Activity is 75% in data set [7] and 22% in data set [12]. This molecule also yielded an IC50 with MIA PaCa-2 [10] of 237 nM. Also, the inhibition result in data set [11] is “Active”. The molecule also displayed an inhibition at 0.1 µM with MIA PaCa-2 [3] of 64.8%.
